Measured values reported in patent US20260098283A1, “In Vitro Bioproduction of Specific Chain Legnth Poly(hydroxyalkanoate) Monomers” (Kimberly-Clark Worldwide, Inc., priority 2022, published 2026).

Experiments:
fatty acid-CoA ligase = test: long-chain fatty acid CoA ligase reaction time course, Example 5; assay type: biochemical, Halomonas titanicae; conditions: Example 5, FIG. 20/21; 1.0 M NaCl, pH 7.5
Description: (§1) • Sources: Enzyme sequences were identified by searching the NCBI Protein or Identical Protein Group databases. For this example, it was decided to focus primarily on the thermohalophile Thermobifida halotolerans. Sequences and accession numbers for the enzymes used in this work are listed in Appendix I. All general laboratory chemicals and long chain fatty acids were purchased from Millipore-Sigma Chemical Company (St. Louis, MO). Cloning materials and protein purification supplies were from New England Biolabs (Beverly, MA). • Enzyme cloning: The amino acid sequence for each enzyme was searched for potential signal sequences. If one was present it was removed from the sequence. A histine tag and a TEV protease cleavage sequence were added to the N-ter of each enzyme. This sequence was MHHHHHHENLYFQS to assist in purification (via an NTA-Ni column) and subsequent removal of the hexahistidine tag. Each recombinant enzyme began with an N-ter serine residue as TEV protease cleaves after the glutamine (Q). Each amino acid sequence was back translated to an E. coli codon optimized nucleic acid sequence and was synthesized using standard laboratory gene synthesis techniques. The insert was digested with Nde I and cloned into the similarly digested expression vector pET11d. Final DNA sequences were verified by DNA sequencing. […] 100 U of TEV protease was added per mg of enzyme (approximate ratio of 1:100 (w/w). The reaction was allowed to proceed for 16 h at 4° C. The mixture was passed over a charged nickel column. One column volume of eluent was collected representing purified tag-free enzyme. • Enzyme assays: The formation of long-chain fatty acid-CoA was monitored by measuring the amount of pyrophosphate released from the reaction using the MAK 168 pyrophosphate assay kit from Millipore-Sigma Chemical Co (St. Louis, MO). The formation of PHA was monitored by the increase in optical density (650 nm) as a function of time in a Molecular Devices SpectraMax 5 spectrometer. […]

[1] = test system: fatty acid-CoA ligase QKS24074; test: substrate chain length preference of fatty acid-CoA ligase QKS24074; assay type: biochemical, Halomonas titanicae; conditions: for suitability of the enzyme for the fatty acid (optimal / possible / not possible): result in words; for percent activity: substrate chain length preference distribution, percent activity vs. carbon length, enzyme QKS24074
Description: (§2) • Sources: Enzyme sequences were identified by searching the NCBI Protein or Identical Protein Group databases. For this example, it was decided to focus primarily on the thermohalophile Thermobifida halotolerans. Sequences and accession numbers for the enzymes used in this work are listed in Appendix I. All general laboratory chemicals and long chain fatty acids were purchased from Millipore-Sigma Chemical Company (St. Louis, MO). Cloning materials and protein purification supplies were from New England Biolabs (Beverly, MA). • Enzyme cloning: The amino acid sequence for each enzyme was searched for potential signal sequences. If one was present it was removed from the sequence. A histine tag and a TEV protease cleavage sequence were added to the N-ter of each enzyme. This sequence was MHHHHHHENLYFQS to assist in purification (via an NTA-Ni column) and subsequent removal of the hexahistidine tag. Each recombinant enzyme began with an N-ter serine residue as TEV protease cleaves after the glutamine (Q). Each amino acid sequence was back translated to an E. coli codon optimized nucleic acid sequence and was synthesized using standard laboratory gene synthesis techniques. The insert was digested with Nde I and cloned into the similarly digested expression vector pET11d. Final DNA sequences were verified by DNA sequencing. Expression plasmids were used to transform E. coli Origami2 (DE3) for expression. • Protein expression and purification: A single colony was used to inoculate 5.0 mL of LBamp media (80 mg/ml ampicillin concentration). Bacteria were grown for 12 hours at 37° C. and this culture was used to inoculate 500 mL of LBamp media. This culture was grown at 37° C. until the optical density (600 nm) reached 0.4 (typically in 3-5 hours). Protein expression was induced by the addition of IPTG to a final concentration of 1 mM. Cells were grown for 12 hours at 37° C. Cells were harvested by centrifugation at 5,000×g for 20 minutes, and frozen at −80° C. until use (minimal time frozen was 24 hours). Cells were thawed on ice and were resuspended in Buffer A (0.5 M NaCl, 20 mM Tris-HCl, 5 mM imidazole, pH 7.9) (typically 1 mL per gram of cells). Cells were disrupted via two passes through a French Press followed by centrifugation at 30,000×g for 30 minutes. The crude extract was mixed with an equal volume of charged His-Bind resin slurry and the mixture was poured into 5 cm×4.9 cc column. The column was washed with 10 column volumes of wash buffer (0.5 M NaCl, 20 mM Tris-HCl, 60 mM imidazole, pH 7.9) at a flow rate of 0.2 mL/min. Enzyme was eluted from the column with the addition of 3 column volumes of 0.5 M NaCl, 20 mM Tris-HCl, 1.0 M imidazole, pH 7.9. Fractions were collected (1.0 mL). Fractions containing enzyme were pooled after analysis by SDS PAGE. The pooled fractions were applied to a 70 cmp×4.9 cc Sephadex G-75 column (10 mM Tris-HCl, PH 7.5, 1 mM EDTA). Fractions containing homogeneous protein were pooled (after inspection by SDS PAGE) and concentrated to 5 mg/ml via Centricon filters. Enzyme was stored frozen at −20° C. until use. The TRX-histidine tag region was removed from the enzymes using TEV protease. Protein was diluted to 1.0 mg/ml into 10 mM Tris-HCl, pH 7.5, 25 mM NaCl. 100 U of TEV protease was added per mg of enzyme (approximate ratio of 1:100 (w/w). The reaction was allowed to proceed for 16 h at 4° C. The mixture was passed over a charged nickel column. One column volume of eluent was collected representing purified tag-free enzyme. • Enzyme assays: The formation of long-chain fatty acid-CoA was monitored by measuring the amount of pyrophosphate released from the reaction using the MAK 168 pyrophosphate assay kit from Millipore-Sigma Chemical Co (St. Louis, MO). The formation of PHA was monitored by the increase in optical density (650 nm) as a function of time in a Molecular Devices SpectraMax 5 spectrometer. The assay measures the increase in light scattering due to precipitating PHA formed during the reaction. […]

[2] = test system: fatty acid-CoA ligase QKS24113; test: substrate chain length preference of fatty acid-CoA ligase QKS24113; assay type: biochemical, Halomonas titanicae; conditions: for suitability of the enzyme for the fatty acid (optimal / possible / not possible): result in words; for percent activity: substrate chain length preference distribution, percent activity vs. carbon length, enzyme QKS24113
Description: as §2

[3] = test system: fatty acid-CoA ligase QKS23364; test: substrate chain length preference of fatty acid-CoA ligase QKS23364; assay type: biochemical, Halomonas titanicae; conditions: for suitability of the enzyme for the fatty acid (optimal / possible / not possible): result in words; for percent activity: substrate chain length preference distribution, percent activity vs. carbon length, enzyme QKS23364
Description: as §2

[4] = test system: fatty acid-CoA ligase QKS26753; test: substrate chain length preference of fatty acid-CoA ligase QKS26753; assay type: biochemical, Halomonas titanicae; conditions: for suitability of the enzyme for the fatty acid (optimal / possible / not possible): result in words; for percent activity: substrate chain length preference distribution, percent activity vs. carbon length, enzyme QKS26753
Description: as §2

[5] = test system: fatty acid-CoA ligase QKS25406; test: substrate chain length preference of fatty acid-CoA ligase QKS25406; assay type: biochemical, Halomonas titanicae; conditions: for suitability of the enzyme for the fatty acid (optimal / possible / not possible): result in words; for percent activity: substrate chain length preference distribution, percent activity vs. carbon length, enzyme QKS25406
Description: as §2

[6] = test system: five-step reaction from long-chain fatty acid CoA to PHA; test: formation of precipitating PHA, optical density 650 nm, Example 5; assay type: biochemical, Halomonas titanicae; conditions: Example 5, FIG. 22; fatty acid as starting material
Description: as §1

[7] = test system: long-chain fatty acid CoA ligase; test: long-chain fatty acid CoA ligase reaction time course, Example 1 (fatty acid loss, pyrophosphate formation); assay type: biochemical, Thermobifida halotolerans; conditions: Example 1, FIG. 6/7; single fatty acid substrate
Description: as §1, with “sequence.” for “sequence. A histine tag and a TEV protease cleavage sequence were added to the N-ter of each enzyme. This sequence was MHHHHHHENLYFQS to assist in purification (via an NTA-Ni column) and subsequent removal of the hexahistidine tag. Each recombinant enzyme began with an N-ter serine residue as TEV protease cleaves after the glutamine (Q). Each amino acid sequence was back translated to an E. coli codon optimized nucleic acid sequence and was synthesized using standard laboratory gene synthesis techniques. The insert was digested with Nde I and cloned into the similarly digested expression vector pET11d. Final DNA sequences were verified by DNA sequencing.”

[8] = test system: overall 5-step reaction from long-chain fatty acid CoA to PHA; test: formation of precipitating PHA, optical density 650 nm, Example 1; assay type: biochemical, Thermobifida halotolerans; conditions: Example 1, FIG. 8; fatty acid as starting material
Description: as §1, with “sequencing. Expression plasmids were used to transform E. coli Origami2 (DE3) for expression. • Protein expression and purification: A single colony was used to inoculate 5.0 mL of LBamp media (80 mg/ml ampicillin concentration). Bacteria were grown for 12 hours at 37° C. and this culture was used to inoculate 500 mL of LBamp media. This culture was grown at 37° C. until the optical density (600 nm) reached 0.4 (typically in 3-5 hours). Protein expression was induced by the addition of IPTG to a final concentration of 1 mM. Cells were grown for 12 hours at 37° C. Cells were harvested by centrifugation at 5,000×g for 20 minutes, and frozen at −80° C. until use (minimal time frozen was 24 hours).” for “sequencing.”

[9] = test system: WP_068692787 enzyme (long chain fatty acid-CoA synthetase); test: formation of the CoA moiety followed by pyrophosphate formation, Example 4; assay type: biochemical, Thermobifida halotolerans; conditions: Example 4, FIG. 16; result in words
Description: as §1, with “sequence.” for “sequence. A histine tag and a TEV protease cleavage sequence were added to the N-ter of each enzyme. This sequence was MHHHHHHENLYFQS to assist in purification (via an NTA-Ni column) and subsequent removal of the hexahistidine tag. Each recombinant enzyme began with an N-ter serine residue as TEV protease cleaves after the glutamine (Q). Each amino acid sequence was back translated to an E. coli codon optimized nucleic acid sequence and was synthesized using standard laboratory gene synthesis techniques. The insert was digested with Nde I and cloned into the similarly digested expression vector pET11d. Final DNA sequences were verified by DNA sequencing.”

[10] = test system: WP_068689753 enzyme (long chain fatty acid-CoA synthetase); test: formation of the CoA moiety followed by pyrophosphate formation, Example 3; assay type: biochemical, Thermobifida halotolerans; conditions: Example 3, FIG. 13; sole substrate
Description: as §1, with “sequence.” for “sequence. A histine tag and a TEV protease cleavage sequence were added to the N-ter of each enzyme. This sequence was MHHHHHHENLYFQS to assist in purification (via an NTA-Ni column) and subsequent removal of the hexahistidine tag. Each recombinant enzyme began with an N-ter serine residue as TEV protease cleaves after the glutamine (Q). Each amino acid sequence was back translated to an E. coli codon optimized nucleic acid sequence and was synthesized using standard laboratory gene synthesis techniques. The insert was digested with Nde I and cloned into the similarly digested expression vector pET11d. Final DNA sequences were verified by DNA sequencing.”

Row | Structure (SMILES) | time to completion of the long-chain fatty acid CoA ligase reaction (fatty acid-CoA ligase) | suitability of the enzyme for the fatty acid (optimal / possible / not possible) [1] | percent activity [1] | suitability of the enzyme for the fatty acid (optimal / possible / not possible) [2] | percent activity [2] | suitability of the enzyme for the fatty acid (optimal / possible / not possible) [3] | percent activity [3] | suitability of the enzyme for the fatty acid (optimal / possible / not possible) [4] | percent activity [4] | suitability of the enzyme for the fatty acid (optimal / possible / not possible) [5] | percent activity [5] | duration of linear formation of precipitating PHA after the lag [6] | time to completion of the long-chain fatty acid CoA ligase reaction [7] | duration of linear formation of precipitating PHA after the lag [8] | lag before measurable increase in optical density (650 nm) [8] | conversion into the CoA moiety [9] | completion of formation of the CoA moiety [10] | lag period of formation of the CoA moiety [10]
1 | CCCCCCCC(=O)O [C6, octanoic acid] | complete within two hours | optimal enzyme | 100% | not possible enzymes | 0.0% | much lower activity | 25.0% | not possible enzymes | 0.0% | not possible enzymes | 0.0% | 100 min |  |  |  |  |  | 
2 | CCCCCCCCCC(=O)O [C8] |  |  | 100% |  | 0.0% |  | 70.7% |  | 0.0% |  | 0.0% |  |  |  |  |  |  | 
3 | CCCCCCCCCCCCCC(=O)O [C12, myristic acid] | complete within two hours | much lower activity | 21.0% | much lower activity | 5.2% | optimal enzymes | 100% | optimal enzymes | 100% | much lower activity | 11.6% | 100 min | complete within two hours | 150 min | approximately 50 minutes |  |  | 
4 | CCCCCCCCCCCCCCCC(=O)O [C14] |  |  | 0.0% |  | 21.1% |  | 100% |  | 100% |  | 30.4% |  |  |  |  |  |  | 
5 | CCCCCCCCCCCCCCCCCCCC(=O)O [C18, arachidic acid] |  |  | 0.0% |  | 100% |  | 100% |  | 5.6% |  | 100% |  | complete within two hours | 150 min | approximately 50 minutes |  |  | 
6 | CCCCCCCCCCCCCCCCCCCCCC(=O)O [C20, behenic acid] | complete within two hours | not possible enzymes | 0.0% | optimal enzymes | 100% | much lower activity | 46.5% | not possible enzymes | 0.0% | optimal enzymes | 100% | 100 min |  |  |  |  |  | 
7 | CCCCCCC(=O)O [Heptanoic acid] |  |  |  |  |  |  |  |  |  |  |  |  |  |  |  | readily converted |  | 
8 | CCCCCCCCCCCCCCCCCCCCCCCCCC(=O)O [hexacosanoic acid] |  |  |  |  |  |  |  |  |  |  |  |  |  |  |  |  | 240 min | 50 min
